This is an account of results in PMC5898815 (Journal of medicinal chemistry, 2018).

The nature of data set [1]: PAMPA permeability. It is filed as in vitro ADME.
For data set [2], the target named is DCN1-UBE2M protein-protein interaction (Homo sapiens, UniProt Q96GG9). It is filed as binding.
Data set [3] has as its target RBX1 (Homo sapiens, UniProt P62877). Briefly: DCN1-independent neddylation of cullins catalyzed solely by RBX1. It is filed as biochemical.
In data set [4] the target is T1, DCN1 (Homo sapiens, UniProt Q96GG9). It is filed as cell-based. The note with it: HCC95 cells, 10 μM, 1 h, 53 °C.
Target sequence in this assay (Q96GG9 whole entry): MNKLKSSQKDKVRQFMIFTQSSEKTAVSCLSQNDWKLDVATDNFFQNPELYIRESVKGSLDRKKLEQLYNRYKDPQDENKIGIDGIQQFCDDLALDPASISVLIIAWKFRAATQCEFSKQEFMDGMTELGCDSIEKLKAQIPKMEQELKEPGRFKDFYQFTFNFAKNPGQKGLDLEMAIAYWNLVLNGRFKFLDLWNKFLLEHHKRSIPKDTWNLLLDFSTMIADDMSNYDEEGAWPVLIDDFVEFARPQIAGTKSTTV
In data set [5] the test system is HCC95 cells. Briefly: In vitro proliferation assay, HCC95 cells. It is filed as cell-based.
The target of data set [6] is T2, NEDD8 E1 enzyme (Homo sapiens, UniProt Q13564+Q8TBC4).
T2 sequence (Q8TBC4 1-463): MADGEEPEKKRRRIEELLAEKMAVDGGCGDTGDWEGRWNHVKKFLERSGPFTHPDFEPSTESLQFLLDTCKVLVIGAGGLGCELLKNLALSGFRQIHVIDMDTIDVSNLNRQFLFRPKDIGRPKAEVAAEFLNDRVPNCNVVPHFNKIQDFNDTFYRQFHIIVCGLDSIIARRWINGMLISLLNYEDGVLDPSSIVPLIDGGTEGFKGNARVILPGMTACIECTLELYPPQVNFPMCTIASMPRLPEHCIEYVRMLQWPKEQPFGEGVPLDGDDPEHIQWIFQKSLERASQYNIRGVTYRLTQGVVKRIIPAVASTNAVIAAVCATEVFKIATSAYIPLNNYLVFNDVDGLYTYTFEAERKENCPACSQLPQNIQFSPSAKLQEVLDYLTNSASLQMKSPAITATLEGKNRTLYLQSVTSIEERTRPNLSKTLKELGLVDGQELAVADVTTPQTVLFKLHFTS
T2 sequence (Q13564 1-534): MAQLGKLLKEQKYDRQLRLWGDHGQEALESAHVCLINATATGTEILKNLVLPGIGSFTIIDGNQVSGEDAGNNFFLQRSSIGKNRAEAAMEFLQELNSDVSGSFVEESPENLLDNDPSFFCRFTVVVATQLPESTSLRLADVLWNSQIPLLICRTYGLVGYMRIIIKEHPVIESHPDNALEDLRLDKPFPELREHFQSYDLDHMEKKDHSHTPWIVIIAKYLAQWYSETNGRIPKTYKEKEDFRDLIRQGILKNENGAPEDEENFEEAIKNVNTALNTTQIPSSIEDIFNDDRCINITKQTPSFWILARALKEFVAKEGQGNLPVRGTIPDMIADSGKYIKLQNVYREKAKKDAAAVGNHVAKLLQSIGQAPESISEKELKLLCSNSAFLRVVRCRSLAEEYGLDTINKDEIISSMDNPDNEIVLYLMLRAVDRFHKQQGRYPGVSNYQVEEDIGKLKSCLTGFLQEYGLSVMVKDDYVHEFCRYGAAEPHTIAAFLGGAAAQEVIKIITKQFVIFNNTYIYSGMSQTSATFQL
Briefly: Inhibition of the NEDD8 E1 activating enzyme. It is filed as biochemical. The note with it: concentrations as high as 50 μM.

The target of data set [7] is T1, DCN1. It is filed as biochemical.
Target sequence in this assay (Q96GG9 62-259 limits assumed): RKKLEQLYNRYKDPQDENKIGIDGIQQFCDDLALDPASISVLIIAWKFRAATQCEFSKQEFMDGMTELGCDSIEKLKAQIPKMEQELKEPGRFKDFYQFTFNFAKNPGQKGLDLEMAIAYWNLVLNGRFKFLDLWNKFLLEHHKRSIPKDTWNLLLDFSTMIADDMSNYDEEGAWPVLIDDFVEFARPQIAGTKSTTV
In data set [8] the test system is cullin neddylation in HCC95 cells. Put plainly: Western blot for inhibition of cellular cullin neddylation in HCC95 cells. It is filed as cell-based. Particulars: for Inhibition of cullin neddylation in HCC95 cells / Steady-state level of cullin neddylation for CUL1 and CUL3 / Steady-state level of cullin neddylation for CUL2, CUL4A and CUL5: 20 μM; for Inhibition of cullin neddylation in HCC95 cells: dosing at T = 0 and 24 hr, 48 hours; for Steady-state level of cullin neddylation for CUL1 and CUL3 / Steady-state level of cullin neddylation for CUL2, CUL4A and CUL5: HCC95 cells; for Accumulation of well-recognized proteasomal targets (immunoblot): acute pharmacological inhibition, Supplementary Figure 6. Background: Immunoblotting shows a protein as a band on a membrane.

In data set [9] the test system is DCN3-5. Briefly: Pulse-chase isoform selectivity, NEDD8 transfer from UBE2M to CUL2. It is filed as biochemical, human. The note with it: at 50 μM.
Data set [10] addresses UBE2M (N-acetylated) (Homo sapiens) (UniProt P61081). Particulars: cited from earlier work.

Like-named read-outs stand apart in the source and are kept apart here. Some results are limits rather than exact numbers.

RBX1, sequence (P62877 whole entry, species assumed): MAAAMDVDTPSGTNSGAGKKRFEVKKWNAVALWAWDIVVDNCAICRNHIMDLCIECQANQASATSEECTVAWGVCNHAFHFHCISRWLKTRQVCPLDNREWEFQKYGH
RBX1, sequence (Q13617 whole entry partner, species assumed): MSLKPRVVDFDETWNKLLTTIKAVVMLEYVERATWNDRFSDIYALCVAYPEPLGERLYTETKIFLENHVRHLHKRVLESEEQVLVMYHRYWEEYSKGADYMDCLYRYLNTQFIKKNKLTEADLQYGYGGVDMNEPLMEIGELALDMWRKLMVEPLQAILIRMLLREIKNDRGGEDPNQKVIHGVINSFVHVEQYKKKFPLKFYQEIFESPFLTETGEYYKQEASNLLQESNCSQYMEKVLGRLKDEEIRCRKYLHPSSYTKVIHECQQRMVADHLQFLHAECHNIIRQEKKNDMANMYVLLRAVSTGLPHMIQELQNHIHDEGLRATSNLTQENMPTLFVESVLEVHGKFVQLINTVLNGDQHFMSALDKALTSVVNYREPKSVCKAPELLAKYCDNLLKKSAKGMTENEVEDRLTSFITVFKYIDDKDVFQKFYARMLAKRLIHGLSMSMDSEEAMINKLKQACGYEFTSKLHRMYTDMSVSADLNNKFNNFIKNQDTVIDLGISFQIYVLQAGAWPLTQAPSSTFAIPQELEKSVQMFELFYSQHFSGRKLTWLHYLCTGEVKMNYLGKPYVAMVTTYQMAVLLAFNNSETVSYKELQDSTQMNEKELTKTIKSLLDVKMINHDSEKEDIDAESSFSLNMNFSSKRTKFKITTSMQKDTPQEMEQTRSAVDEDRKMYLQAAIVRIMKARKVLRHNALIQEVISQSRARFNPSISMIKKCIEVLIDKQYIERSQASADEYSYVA
DCN1-UBE2M protein-protein interaction, sequence (Q96GG9 62-259 limits assumed): as the sequence (Q96GG9 62-259 limits assumed) above
UBE2M (N-acetylated) (Homo sapiens), sequence (P61081 whole entry): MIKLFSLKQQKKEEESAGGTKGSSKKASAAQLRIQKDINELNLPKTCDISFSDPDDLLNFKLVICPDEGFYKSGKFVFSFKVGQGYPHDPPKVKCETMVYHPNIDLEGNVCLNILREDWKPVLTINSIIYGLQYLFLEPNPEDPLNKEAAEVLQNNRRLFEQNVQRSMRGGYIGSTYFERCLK
DCN1 (from UniProt Q96GG9), sequence (Q96GG9 whole entry): as the sequence (Q96GG9 whole entry) above

`Cc1ccccc1CN1CCC(NC(=O)Nc2cccc(C(F)(F)F)c2)CC1` [Compound 13]: the Pampa in data set [1] was 1200 ± 35 ×10^−6 cm/s.

As for `O=C(Nc1cccc(C(F)(F)F)c1)NC1CCN(Cc2ccccc2F)CC1` [Compound 15], the Pampa in [1] is 1500 ± 1 ×10^−6 cm/s.

On to `Cc1cccc(CN2CCC(NC(=O)Nc3cccc(C(F)(F)F)c3)CC2)c1` [Compound 16], for which the Pampa in data set [1] is over 0.0022 cm/s.

Regarding `O=C(Nc1cccc(C(F)(F)F)c1)NC1CCN(Cc2cccc(Cl)c2)CC1` [Compound 17], the Pampa in data set [1] was 1700 ± 1 ×10^−6 cm/s.

Compound `O=C(Nc1cccc(C(F)(F)F)c1)NC1CCN(Cc2cccc(F)c2)CC1` [Compound 18] had a Pampa in [1] of over 0.0022 cm/s.

Turning to `Cc1ccc(CN2CCC(NC(=O)Nc3cccc(C(F)(F)F)c3)CC2)cc1` [Compound 19], in [1], the Pampa was over 0.0022 cm/s.

For `O=C(Nc1cccc(C(F)(F)F)c1)NC1CCN(Cc2ccc(Cl)cc2)CC1` [Compound 20], the Pampa in data set [1] is 1300 ± 43 ×10^−6 cm/s.

In the case of `O=C(Nc1cccc(C(F)(F)F)c1)NC1CCN(Cc2ccc(F)cc2)CC1` [Compound 21], in data set [1], the Pampa was over 0.0022 cm/s.

Turning to `O=C(Nc1ccccc1)NC1CCN(Cc2ccccc2)CC1` [Compound 23], the Pampa in data set [1] is 1400 ± 250 ×10^−6 cm/s.

Compound `Cc1ccc(NC(=O)NC2CCN(Cc3ccccc3)CC2)cc1Cl` [Compound 25] returned a Pampa in data set [1] of over 0.0022 cm/s.

Take `Cc1cccc(NC(=O)NC2CCN(Cc3ccccc3)CC2)c1` [Compound 26]: the “Potency in the TR-FRET assay (in words)” value in [2] is “practically inactive”.

Take `Cn1nccc1-c1cccc(NC(=O)NC2CCN(Cc3ccccc3)CC2)c1` [Compound 32]: the Pampa in [1] was over 0.0022 cm/s.

In the case of `CC(=O)O[C@H]1CN(Cc2ccccc2)CC[C@@H]1NC(=O)Nc1cccc(C(F)(F)F)c1` [Compound 34, (3S,4S)-1-benzyl-4-(3-(3-(trifluoromethyl)phenyl)ureido)piperidin-3-yl acetate], in [2], the “Potency in the TR-FRET assay (in words)” value was “did not possess improved potency compared to our initial HTS hit 1”.

With `CCCN1CCC(N(CCC)C(=O)Nc2cccc(C(F)(F)F)c2)CC1` [Compound 35], the Pampa in data set [1] is 1600 ±170 ×10^−6 cm/s.

`CCCCN(C(=O)Nc1cccc(C(F)(F)F)c1)C1CCN(CCC)CC1` [Compound 36] returned a Pampa in data set [1] of over 0.0022 cm/s.

For the compound `CCCN1CCC(N(CC(C)C)C(=O)Nc2cccc(C(F)(F)F)c2)CC1` [Compound 37], the Pampa in [1] is recorded as 1900±200 ×10^−6 cm/s.

As for `CCCN1CCC(N(CCC(C)C)C(=O)Nc2cccc(C(F)(F)F)c2)CC1` [Compound 38], the Pampa in data set [1] is 1500 ±5.4 ×10^−6 cm/s.

With `CCCN1CCC(N(CCOC)C(=O)Nc2cccc(C(F)(F)F)c2)CC1` [Compound 39], in data set [1], the Pampa is listed as 1600 ± 1 ×10^−6 cm/s.

The compound `CCCN1CCC(N(CC2CCCCC2)C(=O)Nc2cccc(C(F)(F)F)c2)CC1` [Compound 40] showed a Pampa in data set [1] of over 0.0022 cm/s.

`CCCN1CCC(N(Cc2ccco2)C(=O)Nc2cccc(C(F)(F)F)c2)CC1` [Compound 41] returned a Pampa in data set [1] of over 0.0022 cm/s.

As to `CCCN1CCC(N(Cc2cccnc2)C(=O)Nc2cccc(C(F)(F)F)c2)CC1` [Compound 43], in data set [1], the Pampa is given as 1300 ±79 ×10^−6 cm/s.

`CCCN1CCC(N(Cc2ccc3c(c2)OCO3)C(=O)Nc2cccc(C(F)(F)F)c2)CC1` [Compound 45, 1-(benzo[d][1,3]dioxol-5-ylmethyl)-1-(1-propylpiperidin-4-yl)-3-(3-(trifluoromethyl)phenyl)urea] registered a Pampa in [1] of over 0.0022 cm/s.

As to `CCCN1CCC(N(Cc2cc(F)cc(C(F)(F)F)c2)C(=O)Nc2cccc(C(F)(F)F)c2)CC1` [Compound 46], the “Inhibition of DCN1-independent neddylation of cullins catalyzed solely by RBX1” value (“Inhibition … by RBX1” for short) in data set [3] is “do not inhibit”. Besides, the Pampa in data set [1] is over 0.0022 cm/s.

Compound `O=C(Nc1cccc(C(F)(F)F)c1)N(Cc1ccccc1)C1CCNCC1` [Compound 47] yielded a Pampa in data set [1] of over 0.0022 cm/s.

For `CCCCN1CCC(N(Cc2ccccc2)C(=O)Nc2cccc(C(F)(F)F)c2)CC1` [Compound 49, 1-benzyl-1-(1-butylpiperidin-4-yl)-3-(3-(trifluoromethyl)phenyl)urea], the “Inhibition … by RBX1” value in data set [3] is recorded as “do not inhibit”. For the same compound, the “Thermal stability of the DCN1 protein (CETSA)” value (from here on “Thermal stability”) in [4] is on record as “clearly enhanced”. In data set [1], this compound returned a Pampa of over 0.0022 cm/s. The “Growth inhibition of monolayer cultures at 20 μM” value in [5] is recorded as “only minimally growth inhibitory”. Besides, the “Inhibition of the E1 activating enzyme for NEDD8” value in [6] is “do not inhibit”. The “Inhibition of DCN1 stimulated NEDD8 transfer from UBE2F to the cullins” value in [7] is given as “inhibit”. Moreover, in data set [8], the “Inhibition of cullin neddylation in HCC95 cells” value was “inhibited neddylation”; the “Steady-state level of cullin neddylation for CUL1 and CUL3” value is on record as “selectively decreases”; the “Steady-state level of cullin neddylation for CUL2, CUL4A and CUL5” value was “relatively unaffected”; the “Accumulation of well-recognized proteasomal targets (immunoblot)” value is recorded as “failed to cause gross accumulation”.

In the case of `CCCCCN1CCC(N(Cc2ccccc2)C(=O)Nc2cccc(C(F)(F)F)c2)CC1` [Compound 50], in [1], the Pampa is 1400 ± 540 ×10^−6 cm/s.

Consider `CCCC(C)N1CCC(N(Cc2ccccc2)C(=O)Nc2cccc(C(F)(F)F)c2)CC1` (stereo not drawn) [Compound 52, 1-benzyl-1-(1-(pentan-2-yl)piperidin-4-yl)-3-(3-(trifluoromethyl)phenyl)urea], for which the “Inhibition … by RBX1” value in data set [3] is recorded as “do not inhibit”. Also, the “Thermal stability” value in data set [4] was “clearly enhanced”. Also, the “Inhibition of neddylation activity of DCN3-5” value in data set [9] was “slight activity”. Besides, the Pampa in data set [1] was 1400 ±39 ×10^−6 cm/s. Besides, the “Growth inhibition of monolayer cultures at 20 μM” value in data set [5] was “only minimally growth inhibitory”. Moreover, the “Inhibition of the E1 activating enzyme for NEDD8” value in data set [6] is on record as “do not inhibit”. In data set [7], the “Inhibition of DCN1 stimulated NEDD8 transfer from UBE2F to the cullins” value is recorded as “inhibit”. Further, in data set [8], the “Inhibition of cullin neddylation in HCC95 cells” value is given as “inhibited neddylation”; the “Steady-state level of cullin neddylation for CUL1 and CUL3” value was “selectively decreases”; the “Steady-state level of cullin neddylation for CUL2, CUL4A and CUL5” value is “relatively unaffected”; the “Accumulation of well-recognized proteasomal targets (immunoblot)” value is “failed to cause gross accumulation”.

In turn, `O=C(Nc1cccc(C(F)(F)F)c1)N(Cc1ccccc1)C1CCN(CC2CCCCC2)CC1` [Compound 58] came in with a Pampa in data set [1] of under 1e-06 cm/s.

`CCCS(=O)(=O)N1CCC(N(Cc2ccccc2)C(=O)Nc2cccc(C(F)(F)F)c2)CC1` [Compound 61] displayed a Pampa in [1] of under 1e-06 cm/s.

Consider `CCCCS(=O)(=O)N1CCC(N(Cc2ccccc2)C(=O)Nc2cccc(C(F)(F)F)c2)CC1` [Compound 62], for which the Pampa in data set [1] is under 1e-06 cm/s.

In data set [1] (mean ± SD), `O=C(Nc1cccc(C(F)(F)F)c1)N(Cc1ccccc1)C1CCN(Cc2cccnc2)CC1` [Compound 67] gave a Pampa of over 0.0022 cm/s.

Take `O=C(Nc1cccc(C(F)(F)F)c1)N(Cc1ccccc1)C1CCN(Cc2ccc(F)cc2)CC1` [Compound 68]: the Pampa in [1] (mean ± SD) was over 0.0022 cm/s.

On to `O=C(Nc1cccc(C(F)(F)F)c1)N(Cc1ccccc1)C1CCN(Cc2ccc3c(c2)OCO3)CC1` [Compound 70], for which, in data set [1] (mean ± SD), the Pampa was over 0.0022 cm/s.

With `O=C(Nc1cccc(C(F)(F)F)c1)N(Cc1ccccc1)C1CCN(Cc2ccc3c(c2)OCCO3)CC1` [Compound 71], in data set [1] (mean ± SD), the Pampa was over 0.0022 cm/s.

Take `CC(C)(C)N1CCC(N(Cc2ccc3c(c2)OCO3)C(=O)Nc2cccc(C(F)(F)F)c2)CC1` [Compound 73]: the “Inhibition … by RBX1” value in [3] was “do not inhibit”.

Turning to `CCCCN1CCC(N(Cc2ccccc2)C(=O)Nc2cccnc2)CC1` [NAcM-NEG, reference compound], the “Thermal stability” value in data set [4] is “largely degraded”.

Take DCN1 (from UniProt Q96GG9): the Kd in data set [10] was 1 µM.

The Kd is the concentration at which binding is half-saturated.
